In patent US10118947B2, “Modulation of structured polypeptide specificity” (BICYCLE THERAPEUTICS LIMITED, priority 2013, dated 2018):
Where two headings read alike, the source gives them in different places. Values belong to the compound of their own block, whether it stands above or below them. Numbered stars: 1 amine (or outer) side, 2 acyl side, 3 side chain; on linkers, the order of the positions; unused ones are H or OH. Bridge positions count the residues as written; N and C are the ends. Square brackets hold non-standard residues; d marks the D form. Peptide text beside a SMILES is read from it. TBMB = c1c(C[*:1])cc(C[*:3])cc1C[*:2]; hArg = N=C(N)NCCCC[C@H](N)C(=O)O; Aze = O=C(O)[C@@H]1CCN1

What was measured:
[1] = Table 1; Method #3; cited from earlier work
[2] = Quantitative plasma stability Method #3 (LC-MS, 95% plasma), rat plasma; format: in vitro ADME; conditions: method #3; for half-life at 5 uM: rat, plasma
Experimental: To obtain plasma stability quantitatively, peptide stock solutions (1 mM in DMSO) were shipped to Biofocus, UK, who performed the analysis. Peptides were diluted to 100 uM with water, and diluted 1:20 in plasma (5 uM final concentration, with the plasma at 95%), sampled as appropriate, precipitated as above, and quantified using a Waters Xevo TQ-MS.

[3] = Plasma stability profiling Method #1 (MALDI-TOF, 35% plasma), rat plasma; format: in vitro ADME
Method in brief: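 Qualitative test: 200 µM peptide incubated at 37 °C in 35% rat or human citrated plasma supplemented with PBS, sampled at 0, 3, 24 h then daily up to 10 days. Parent mass tracked by MALDI-TOF; value is time until parent peptide no longer detectable.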

rat plasma Kallikrein = biological target: T1, rat plasma Kallikrein (Rattus norvegicus, UniProt P14272)
T1 construct: polyhistidine tag (N, cleaved yes); proTEV cleavage site (pro-peptide linker) (N, cleaved yes); made in house; host or cells: HEK-293 (suspension-adapted)
T1 sequence (P14272 391-638 limits assumed): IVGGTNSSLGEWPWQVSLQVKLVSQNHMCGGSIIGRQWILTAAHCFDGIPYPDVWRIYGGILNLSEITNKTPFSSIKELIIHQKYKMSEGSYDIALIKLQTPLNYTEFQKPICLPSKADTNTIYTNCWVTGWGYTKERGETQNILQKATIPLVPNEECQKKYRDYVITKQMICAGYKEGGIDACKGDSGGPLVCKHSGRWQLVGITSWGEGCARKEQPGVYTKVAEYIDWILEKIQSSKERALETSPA

human plasma Kallikrein [4] = biological target: T2, human plasma Kallikrein (Homo sapiens, UniProt P03952); assay: Phage binding assay of individual clones, homogeneous plate-based binding to biotinylated human plasma Kallikrein; conditions: for BINDING ASSAY SIGNAL: Table 19, fixed WPAR motif library, selection output clones
T2 construct: purchased Stratech, UK
T2 sequence (P03952 20-638): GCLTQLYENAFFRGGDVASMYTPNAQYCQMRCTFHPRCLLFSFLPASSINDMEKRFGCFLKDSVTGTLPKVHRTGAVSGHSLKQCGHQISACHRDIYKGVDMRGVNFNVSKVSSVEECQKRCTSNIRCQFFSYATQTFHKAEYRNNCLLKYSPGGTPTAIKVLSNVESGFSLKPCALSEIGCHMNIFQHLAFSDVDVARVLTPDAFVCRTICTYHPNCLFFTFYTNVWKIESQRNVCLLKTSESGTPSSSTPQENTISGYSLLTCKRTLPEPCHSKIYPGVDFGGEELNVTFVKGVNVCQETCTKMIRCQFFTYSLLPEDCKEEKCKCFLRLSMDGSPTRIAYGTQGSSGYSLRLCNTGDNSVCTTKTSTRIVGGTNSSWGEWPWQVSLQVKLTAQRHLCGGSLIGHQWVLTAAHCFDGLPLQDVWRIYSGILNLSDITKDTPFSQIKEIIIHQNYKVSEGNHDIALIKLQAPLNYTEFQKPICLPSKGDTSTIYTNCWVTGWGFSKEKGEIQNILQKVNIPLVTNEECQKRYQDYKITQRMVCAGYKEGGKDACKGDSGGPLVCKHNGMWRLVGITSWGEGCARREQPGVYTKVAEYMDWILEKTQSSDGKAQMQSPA
Experimental: Library transformant colonies were picked at random and grown as individual cultures in 2TY broth containing selective antibiotic. The picked colonies were DNA-sequenced using a QIAgen PyroMark Q96 DNA sequencer to reveal the amino-acid substitution present in each clone. Where isolated, a clone of each unique substitution was assayed for human plasma Kallikrein binding as follows. The phage-containing supernatant was harvested from the culture and phage were cyclised with tris bromomethyl benzene(TBMB) based on the methods of Heinis et al (Nature Chemical Biology vol. 5 pp 502-507 (2009)). The purified phage from this process were assayed for binding to biotinylated human plasma Kallikrein using a homogeneous plate-based binding assay; assay read-out measured on a BMG Labtech Pherastar FS plate reader. The quantitative binding data from triplicate assay samples was averaged (mean) and expressed as signal:background (where background was a sample assayed with no target material). The signal:background was expressed as a % of the parallel parent sample. Error bars denote standard deviation of the mean. Assays shown are representative of at least 2 independent experiments. The assay data was correlated with the peptide sequences. Substitutions marked in grey were not tested (a clone was not isolated from the random library sampling). A sample of a non-binding (arbitrary) bicycle was assayed in parallel to illustrate the assay baseline.
Library transformant colonies, or selection output colonies, were picked and grown as individual cultures in 2TY broth containing selective antibiotic. The picked colonies were DNA-sequenced using a QIAgen PyroMark Q96 DNA sequencer to reveal the amino-acid substitution present in each clone, and were assayed for human plasma Kallikrein binding as follows. The phage-containing supernatant was harvested from the culture and phage were cyclised with tris bromomethyl benzene (TBMB) based on the methods of Heinis et al (Nature Chemical Biology vol. 5 pp 502-507 (2009)). The purified phage from this process were assayed for binding to biotinylated human plasma Kallikrein using a homogeneous plate-based binding assay; assay read-out measured on a BMG Labtech Pherastar FS plate reader. The quantitative binding data from duplicate assay samples was averaged (mean) and expressed as signal:background. Assay data shown is representative of at least 2 independent experiments. The assay data was correlated with the peptide sequences.

[5] = Table 1; Method #1; cited from earlier work
human plasma Kallikrein [6] = biological target: T2, human plasma Kallikrein; assay: Phage selections against human plasma Kallikrein (abundance in selection output); format: binding; conditions: Table 17; relative abundance in the total selection outputs
Experimental: Glycerol stocks of phage libraries were diluted to OD600=0.1 in 500 ml 2YT/chloramphenicol (30 μg/ml) cultures and phage were produced at 30° C. over night (15-16 hrs). Phage were purified and chemically modified as described in Heinis, et al., Nat Chem Biol 2009, 5 (7), 502-7 Biotinylated hPK (3 μg) (IHPKA, from human plasma, Innovative Research, Novi, Mich., USA) was incubated with 50 μl pre-washed magnetic streptavidin beads (Dynal, M-280 from Invitrogen, Paisley, UK) for 10 minutes at RT. Beads were washed 3 times prior to blocking with 0.5 ml washing buffer (10 mM Tris-Cl, pH 7.4, 150 mM NaCl, 10 mM MgCl2, 1 mM CaCl2) containing 1% BSA and 0.1% Tween 20 for 30 minutes at RT with rotation. […] Blocked beads were then mixed with the blocked chemically modified phage and incubated for 30 minutes on a rotating wheel at
RT. Beads were washed 8 times with washing buffer containing 0.1% Tween 20 and twice with washing buffer before incubation with 100 μl of 50 mM glycine, pH 2.2 for 5 minutes. Eluted phage were transferred to 50 μl of 1 M Tris-Cl, pH 8 for neutralization, incubated with 30 ml TG1 cells at OD600=0.4 for 90 minutes at 37° C. and the cells were plated on large 2YT/chloramphenicol plates. One or two additional rounds of panning were performed using the same procedures. In the second round of selection, neutravidin-coated magnetic beads were used to prevent the enrichment of streptavidin-specific peptides. The neutravidin beads were prepared by reacting 0.8 mg neutravidin (Pierce, Rockford, Ill., USA) with 0.5 ml tosyl-activated magnetic beads (Dynal, M-280 from Invitrogen, Paisley, UK) according to the supplier's instructions.
The WPAR (SEQ ID No. 19) motif identified from Example 1 was analysed in the context of the 06-34-03 peptide, in order to identify alternatives or improvements to the WPAR motif. A library was constructed where positions 1, 6, 7, 8, 9 &10 of 06-34-03 were fixed and positions 2, 3, 4 & 5 were randomised (see ‘Randomisation of peptide domains—Library construction’ in Methods above). Selections against human plasma Kallikrein were performed at a variety of stringencies (see Phage selections' in Methods above). All output sequences were identified and analysed for target binding (see ‘Randomisation of peptide domains—Assay of binding of individual clones’ in Methods above). Table 17 lists each unique sequence, its relative abundance in the selection output (frequency), and a rank number according to target binding strength.

[7] = Table 1; read-out: Ki (nM) (rat kallikrein); cited from earlier work

Compound: CC(=O)N[C@H]1CSCc2cc3cc(c2)CSC[C@H](NC(=O)[C@H](CCCNC(=N)N)NC(=O)[C@H](C)NC(=O)[C@@H]2CCCN2C(=O)[C@H](Cc2c[nH]c4ccccc24)NC(=O)[C@H](CO)NC1=O)C(=O)N[C@@H](CC(C)C)C(=O)N[C@@H](Cc1c[nH]cn1)C(=O)N[C@@H](CCC(N)=O)C(=O)N[C@@H](CC(=O)O)C(=O)N[C@@H](CC(C)C)C(=O)N[C@H](C(N)=O)CSC3 [Ac-(06-34-18) wildtype]
t1/2 (hrs) in rat plasma [1]: 2.3 h
t1/2 (hrs) in rat plasma ([2]; Table 15): 2.3 h
half-life at 5 uM ([2]; read-out: half-life in rat plasma (t1/2) (converted)): 2.3 h
observability window / rat plasma stability profile ([3]; method #1): about 2 days
Ki (rat plasma Kallikrein; read-out: Ki (nM) (rat kallikrein); Table 1; cited from earlier work): 1.8 nM

Compound: CLWPARCLTIELC
BINDING ASSAY SIGNAL (human plasma Kallikrein [4]): 59

Compound: CAWPARCTHDDLC
BINDING ASSAY SIGNAL (human plasma Kallikrein [4]): 84

Compound: CC(=O)N[C@H]1CSCc2cc3cc(c2)CSC[C@H](NC(=O)[C@H](CCCCNC(=N)N)NC(=O)[C@H](C)NC(=O)[C@@H]2CCCN2C(=O)[C@H](Cc2c[nH]c4ccccc24)NC(=O)[C@H](CO)NC1=O)C(=O)N[C@@H](CC(C)C)C(=O)N[C@@H](Cc1c[nH]cn1)C(=O)N[C@@H](CCC(N)=O)C(=O)N[C@@H](CC(=O)O)C(=O)N[C@@H](CC(C)C)C(=O)N[C@H](C(N)=O)CSC3 [Ac-(06-34-18) HomoArg5]
t1/2 (hrs) in rat plasma [1]: 10.7 h
half-life at 5 uM ([2]; Table 15, read-out: t1/2 (hrs) in rat plasma (converted)): 10.7 h
Ki (rat plasma Kallikrein; [7]): 101 nM

Second part, led by results:

Observable in rat plasma, for days ([3]; Table 15, comparative stabilities estimated according to method #1): >10 days
Compound: CC(=O)N[C@H]1CSCc2cc3cc(c2)CSC[C@H](NC(=O)[C@H](CCCCNC(=N)N)NC(=O)[C@H](C)NC(=O)[C@@H]2CCN2C(=O)[C@H](Cc2c[nH]c4ccccc24)NC(=O)[C@H](CO)NC1=O)C(=O)N[C@@H](CC(C)C)C(=O)N[C@@H](Cc1c[nH]cn1)C(=O)N[C@@H](CCC(N)=O)C(=O)N[C@@H](CC(=O)O)C(=O)N[C@@H](CC(C)C)C(=O)N[C@H](C(N)=O)CSC3 [Ac-(06-34-18) Aze3 HomoArg5] (Ac-CSW[Aze]A[hArg]CLHQDLC-NH2; linker 1-7-13 via TBMB)
Ki (rat plasma Kallikrein; [7]): 14.8 nM
Observable in rat plasma, for days [5]: >10 days

RANK (human plasma Kallikrein [4]; Table 17, rank according to Kallikrein binding, positions 2-5 of 06-34-03 randomised): 39
FREQUENCY (human plasma Kallikrein [6]): 1
Compound: CSWPYHCTHQDLC
